Assay results as given in patent US9381229B2, “Pharmaceutical composition for use in the treatment of dysfunction associated with aging” (INSERM (INSTITUT NATIONAL DE LA SANTE ET DE LA RECHERCHE …, priority 2011, dated 2016).
Like-named read-outs stand apart in the source and are kept apart here.

Columns and labels:
[1] = Plasma apelin concentration in HFD mice (Example 3); format: in vivo
Protocol: Plasma fatty acids (FM) and TGs measured by colorimetric technique with the Wako NEFA kit (Wako Chemicals) and the PAP 150 Kit (bioMerieux), respectively, as well as plasma leptin, adiponectin (Quantikine; R&D Systems), and apelin (Phoenix Pharmaceuticals, Inc.), were determined in the fed state at the end of the treatment. Insulinemia (Mercodia, Uppsala, Sweden) and glycemia measured with a glucometer (Accu-check; Roche Diagnostics) were determined in the fasted state on blood from the tail vein.

MyoD = conditions: for MyoD marker quantification (mRNA), Mean: apelin 0.1 μmole/kg/day ip, 28 days
Protocol: (§1) Mice were handled in accordance with the principles and guidelines established by the National Institute of Medical Research (INSERM). C57B16/J wild type mice were obtained from Harlan (Gannat, France). CMV-KO apelin mice were obtained from Genoway (Lyon, France). Mice were housed conventionally in a constant temperature (20-22° C.) and humidity (50-60%) animal room, with a 12/12 h light/dark cycle (lights on at 8:00 am) and free access to food and water. The mice were fed a chow diet from weaning until 10-week-old and then either maintained on a chow diet (Research Diet, NJ).
(§2) Apelin treatment was processing to mice from 31 weeks old to 35 weeks old. Mice were daily injected with intraperitoneal injection of apelin (0.1 μmole/kg/day) as previously described (Higuchi et al 2005; Yue et al 2010) for 28 days. Age-matched control mice were PBS-injected during the same period. All mice were sacrificed 24 h after the last apelin ip injection in a fed state.
(§3) Total RNAs ([…]) were isolated from muscles using GeneJET RNA Purification Kit (Fermentas, USA). Total RNAs were reverse transcribed using random hexamers and Superscript 11 reverse transcriptase (Invitrogen, UK). Real time PCR was performed as previously described (Boucher et al. 2005).

Myf5 = conditions: for Myf5 marker quantification (mRNA), Mean: apelin 0.1 μmole/kg/day ip, 28 days
Protocol: as §1, §2, §3

Myostatin = conditions: for Myostatin marker quantification (mRNA), Mean: apelin 0.1 μmole/kg/day ip, 28 days
Protocol: as §1, §2, §3

myogenin = conditions: for myogenin marker quantification (mRNA), Mean: apelin 0.1 μmole/kg/day ip, 28 days
Protocol: as §1, §2, §3

citrate synthase = conditions: muscle homogenates; HFD mice; n=7-9; P<0.001 vs control
Protocol: (§4) Mice were handled in accordance with the principles and guidelines established by INSERM. C57B16/J wild-type (WT) mice were obtained from Harlah (Gannat, France). […] Moris J. Birnbaum (Howard Hughes Medical Institute, University of Pennsylvania, Philadelphia, Pa.). Apelin-deficient (apelin−/−) mice were generated as described previously (10) and backcrossed to C57B16/J mice >10 times. Mice were housed conventionally in a constant temperature (20-22° C.) and humidity (50-60%) animal room, with a 12/12 h light/dark cycle (lights on at 7:00 a.m.) and free access to food and water. The C57B16/J and AMPK-DN mice were fed an ND from weaning until aged 10 weeks and then either maintained on ND (control group) or fed an HFD containing 20% protein, 35% carbohydrate, and 45% fat (Research Diets, New Brunswick, N.J.). Apelin treatment began after the onset of insulin resistance in males aged 23 weeks. Mice were injected daily with apelin-13 (Phoenix Biotech) at […] i.p. as previously described (7) for 28 days. Age-matched control mice were PBS injected during the same period. Standard mice were also treated with a specific APJ receptor antagonist (F13A) (Phoenix Biotech) (11) at 0.2 μmol/kg/day during 28 days or with the combination of apelin and F13A. All mice were killed 24 h after the last apelin injection in a fed state.

soleus muscle = system: soleus muscle
Protocol: as §4

Malonyl-CoA = conditions: soleus muscle of insulin-resistant mice
Protocol: as §4

[2] = system: mitochondria of soleus muscle; conditions: HFD mice
Protocol: as §4

[3] = system: muscle of insulin-resistant mice; conditions: HFD mice; chronic apelin treatment 28 days
Protocol: as §4

AMPK [4] = conditions: muscle of HFD AMPK-DN apelin-treated mice
Protocol: as §4

[5] = Plasma apelin concentration after ip bolus of apelin (Example 1); format: in vivo, mice; conditions: bolus of ip apelin 0.1 μmole/kg; 10 min after injection
[6] = system: nuclear respiratory factor 1 (NRF1); conditions: soleus muscle; HFD mice; chronic apelin treatment
Protocol: as §4
(§5) Total RNAs (1 μg) were isolated from muscle using RNA STAT (AMS Technology, Lutterworth, U.K.) and were reverse transcribed using random hexamers and Superscript II reverse transcriptase (Invitrogen, Paisley, U.K.). Real time PCR was performed as previously described (1). Analysis of the 18S ribosomal RNA was performed using the ribosomal RNA control TaqMan Assay Kit (Applied Biosystems) to normalize gene expression.

PGC1-α = conditions: soleus muscle; HFD mice; chronic apelin treatment
Protocol: as §4, §5

[7] = system: mitochondrial transcription factor A (TFAM); conditions: soleus muscle; HFD mice; chronic apelin treatment
Protocol: as §4, §5

PGC1-β = conditions: soleus muscle; HFD mice; chronic apelin treatment
Protocol: as §4, §5

mtDNA = assay: Mitochondrial DNA analysis in soleus muscle (COX1 to cyclophilin A); format: in vivo; conditions: HFD mice
Protocol: Total DNA was extracted from soleus muscle using a commercial kit (DNeasy; QIAGEN). The content of mitochondrial (mt)DNA was calculated using real-time quantitative PCR by measuring the threshold cycle ratio of a mitochondrial encoded gene (COX1) and a nuclear-encoded gene (cyclophilin A) as previously described (15).

ACC = conditions: muscle of insulin-resistant mice
Protocol: as §4
(§6) Membranes were probed with β-actin or AMPK or ACC antibodies for total proteins.

mitochondrial complexes = conditions: muscle of HFD mice; chronic apelin treatment
Protocol: as §4, §6

AMPK [8] = conditions: muscle of insulin-resistant mice
Protocol: as §4, §6

[9] = quadriceps muscles of moderate aged-mice, 28-days treatment
[10] = soleus muscle, HFD mice, chronic apelin treatment

Structure (SMILES): CSCC[C@H](NC(=O)[C@@H]1CCCN1C(=O)CNC(=O)[C@H](CCCCN)NC(=O)[C@H](Cc1cnc[nH]1)NC(=O)[C@H](CO)NC(=O)[C@H](CC(C)C)NC(=O)[C@H](CCCNC(=N)N)NC(=O)[C@@H]1CCCN1C(=O)[C@H](CCCNC(=N)N)NC(=O)[C@@H](N)CCC(N)=O)C(=O)N1CCC[C@H]1C(=O)N[C@@H](Cc1ccccc1)C(=O)O [apelin, apelin-13]
- Plasma apelin concentrations, increase ([1]; HFD mice, bolus of apelin 0.1 μmol/kg i.p., 10 min after injection): > 2.4 fold
- Plasma apelin concentrations, apelin-treated vs PBS-treated mice ([1]; at the end of the 28-day treatment): not different
- level at 10 min ([1]; mouse, in vivo, ip, 0.1 umol/kg, HFD mice, bolus of apelin 0.1 μmol/kg i.p., 10 min after injection, n=5): 4.12 ± 0.96 ng/mL
- MyoD marker quantification (mRNA), Mean (MyoD; EDL muscle): 142.520
- MyoD marker quantification (mRNA), Mean (MyoD; Gas muscle): 222.300
- MyoD marker quantification (mRNA), Mean (MyoD; Quad muscle): 328.160
- MyoD expression, change in words (FIGS. 1A and B) (MyoD; [9]): increased
- Myf5 marker quantification (mRNA), Mean (Myf5; EDL muscle): 1.200
- Myf5 marker quantification (mRNA), Mean (Myf5; Gas muscle): 5.340
- Myf5 marker quantification (mRNA), Mean (Myf5; Quad muscle): 5.820
- Myf 5 expression, change in words (FIGS. 1A and B) (Myf5; [9]): increased
- Myostatin marker quantification (mRNA), Mean (Myostatin; EDL muscle): 114.660
- Myostatin marker quantification (mRNA), Mean (Myostatin; Gas muscle): 1034.000
- Myostatin marker quantification (mRNA), Mean (Myostatin; Quad muscle): 244.300
- myostatin expression, change in words (FIGS. 1A and B) (Myostatin; [9]): decrease
- myogenin marker quantification (mRNA), Mean (myogenin; EDL muscle): 14.280
- myogenin marker quantification (mRNA), Mean (myogenin; Gas muscle): 23.360
- myogenin marker quantification (mRNA), Mean (myogenin; Quad muscle): 35.060
- Myogenin expression, change in words (FIGS. 1A and B) (myogenin; [9]): increased
- citrate synthase activity (citrate synthase): 2.91±0.07 μmol/min/mg proteins
- insulin-stimulated glucose uptake vs PBS-treated mice (FIG. 7B) (soleus muscle; 100 nmol/L insulin, HFD mice): significantly increased
- rate of palmitate incorporation into TG (FIG. 4B) (soleus muscle; HFD mice, chronic apelin treatment 28 days): no effect
- acylcarnitine levels, especially C16:1 and C18:1 species, vs HFD PBS-treated mice (FIG. 7A) (soleus muscle; soleus muscle homogenates): reduced
- complete oxidation of [14C]palmitate to CO2 vs PBS treatment (FIG. 4C) (soleus muscle; [10]): significantly increased
- incomplete oxidation of [14C]palmitate (FIG. 4C) (soleus muscle; [10]): not significantly increased
- malonyl-CoA concentrations (FIG. 6B) (Malonyl-CoA): significant reduction
- alterations of mitochondria ultrastructure in IMF and SS mitochondria (FIG. 5E) [2]: Fewer adverse alterations
- density of intramyofibrillar (IMF) mitochondria (FIG. 5E) [2]: significantly increased
- succinate and adenylate-driven respiration (State 3) ([2]; permeabilized soleus fibers): significantly higher
- succinate-driven mitochondrial respiration (complex II) vs control (FIG. 5A) ([2]; permeabilized soleus fibers): significantly higher
- glutamate/malate-driven mitochondrial respiration (complex I), apelin- vs PBS-treated ([2]; permeabilized soleus fibers, data not shown): No difference
- amount of IMTG and DAG in muscle vs PBS treatment (FIG. 4A) [3]: does not reduce
- apelin-increased FAO in HFD AMPK-DN mice vs HFD WT (FIG. 6C) (AMPK [4]): completely blunted
- apelin-increased mitochondrial biogenesis in HFD AMPK-DN mice vs HFD WT (FIG. 6D) (AMPK [4]): completely blunted
- overexpression of PGC1-α, TFAM, and NRF1 in HFD AMPK-DN mice (FIG. 6E) (AMPK [4]): reduced
- Plasma apelin concentrations, increase [5]: over 2.5 fold
- expression of NRF1 [6]: upregulated
- Expression of PGC1-α (FIG. 5C) (PGC1-α): significantly increased
- expression of TFAM [7]: upregulated
- expression of PGC1-β (FIG. 5C) (PGC1-β): not modified
- mtDNA-to-nuclear DNA ratio vs PBS-treated mice (FIG. 5D) (mtDNA): significantly higher
- ACC phosphorylation (FIG. 6A) (ACC): significantly increased
- Protein expression of complex II, III, and V (FIG. 5B) (mitochondrial complexes): significantly increased
- AMPK phosphorylation (FIG. 6A) (AMPK [8]): significantly increased
